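Compound exposure: 48 hours, 5 concentrations, 96-well plates. The concentration for 50% growth inhibition is given as GI50. TGI: concentration producing complete growth inhibition.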
What was measured:
Experiment in all cases: DTP human tumour cell line panel, 48 h
HCT-116 colon = tested on: HCT-116 colon
HCT-15 colon = tested on: HCT-15 colon
HT29 colon = tested on: HT29 colon
OVCAR-3 ovarian = tested on: OVCAR-3 ovarian
OVCAR-8 ovarian = tested on: OVCAR-8 ovarian
SK-MEL-5 melanoma = tested on: SK-MEL-5 melanoma
SK-OV-3 ovarian = tested on: SK-OV-3 ovarian
UACC-62 melanoma = tested on: UACC-62 melanoma
BT-549 breast = tested on: BT-549 breast
MCF7 breast = tested on: MCF7 breast
MDA-MB-435 = tested on: MDA-MB-435

| SMILES | TGI (HCT-116 colon) | TGI (HCT-15 colon) | TGI (HT29 colon) | TGI (OVCAR-3 ovarian) | TGI (OVCAR-8 ovarian) | TGI (SK-MEL-5 melanoma) | TGI (SK-OV-3 ovarian) | TGI (UACC-62 melanoma) | TGI (BT-549 breast) | TGI (MCF7 breast) | TGI (MDA-MB-435) | GI50 (HCT-15 colon) | GI50 (MCF7 breast) |
| --- | --- | --- | --- | --- | --- | --- | --- | --- | --- | --- | --- | --- | --- |
| CCCCCCCCOCC(COC(=O)CCCCCCC)OC(=O)CCCCCCC (stereo not given) | > 100 µM | > 100 µM | > 100 µM | > 100 µM | > 100 µM | > 100 µM | > 100 µM | > 100 µM |  |  |  |  |  |
| CN1CCOC(C(NC(=O)c2ccccc2)c2ccccc2)C1=O (stereo not given) | > 100 µM | > 100 µM | > 100 µM | > 100 µM | > 100 µM | > 100 µM | > 100 µM | > 100 µM |  |  |  |  |  |
| Cc1cc2nc3c(C#N)c(-c4ccccc4)/c(=C\Nc4ccc(F)cc4)c(=O)n3c2cc1C | > 100 µM | > 100 µM |  | > 100 µM | > 100 µM | > 100 µM | > 100 µM |  | > 100 µM | > 100 µM | > 100 µM |  |  |
| C1CCC(N=C2N(C3CCCCC3)C(=NC3CCCCC3)N2C2CCCCC2)CC1 | > 100 µM | > 100 µM | > 100 µM | > 100 µM | > 100 µM | > 100 µM | > 100 µM | > 100 µM |  |  |  |  |  |
| CC1=NN(c2nc(N)nc(C(C)Cl)n2)C(C)(C)C1 (stereo not given) | > 100 µM | > 100 µM | > 100 µM |  | > 100 µM | > 100 µM | > 100 µM | > 100 µM | > 100 µM | > 100 µM | > 100 µM |  |  |
| c1cc(-c2ccc(-c3ccsc3)s2)cs1 | > 100 µM | > 100 µM | > 100 µM | > 100 µM | > 100 µM | > 100 µM | > 100 µM | > 100 µM |  | > 100 µM | > 100 µM |  |  |
| Oc1c(N2CCCCC2)cc(-c2cc(N3CCCCC3)c(O)c3ccccc23)c2ccccc12 | 40.7 µM | > 100 µM | 55.5 µM | > 100 µM | > 100 µM | 34.6 µM | > 100 µM | 51.6 µM |  | 59.2 µM | 23.2 µM |  |  |
| O=C1CC(c2ccc(Cl)cc2)=Nc2ccccc2N1 | 59.6 µM | > 100 µM | > 100 µM | > 100 µM | 76.6 µM | > 100 µM | 97.3 µM | > 100 µM |  |  |  |  |  |
| CCOC(=O)C1S(=O)(=O)OCCOS1(=O)=O | > 100 µM |  | > 100 µM | > 100 µM | > 100 µM | > 100 µM | > 100 µM | > 100 µM |  |  |  |  |  |
| O=C(O)CCCc1ccc2c(c1)CC1(C2)Cc2cc3c(cc2C1)CCCC3 | 8.11 µM | 23.7 µM | 30.4 µM | 35.2 µM | 31.4 µM | 32.7 µM | 52.9 µM | > 100 µM |  | 94.2 µM | 38 µM |  |  |
| CN(NC1=NCCO1)c1ccc2ccccc2c1 | > 100 µM | > 100 µM | > 100 µM | 72.7 µM | > 100 µM | 93.3 µM | > 100 µM | > 100 µM |  | > 100 µM | > 100 µM |  |  |
| Cc1c(C)c(S(=O)(=O)N(CCCCN)OCCCN)c(C)c2c1OC(C)(C)CC2 | 35.8 µM | 46.9 µM | 40.4 µM | 30.6 µM | 42 µM | > 100 µM | 33.8 µM | 72.2 µM |  | > 100 µM | 45.1 µM |  |  |
| O=c1cc(Nc2cccc(O)c2)[nH]c(=O)[nH]1 | > 100 µM | > 100 µM | > 100 µM | > 100 µM | > 100 µM | > 100 µM | > 100 µM | > 100 µM | > 100 µM |  | > 100 µM |  |  |
| C=CCON(C(=O)OC(C)(C)C)C(C)(C)C | > 100 µM | > 100 µM | > 100 µM | > 100 µM | > 100 µM | > 100 µM | > 100 µM | > 100 µM | > 100 µM |  | > 100 µM |  |  |
| CCOC(=O)c1c(NC(=O)c2ccccc2)c(C#N)c2n1CCCCC2 | > 100 µM | > 100 µM | > 100 µM |  | > 100 µM | > 100 µM | > 100 µM | > 100 µM |  | > 100 µM | > 100 µM |  |  |
| O=C1CC(c2cccc(Cl)c2)Nc2ccc(N3CCCC3)cc21 (stereo not given) |  | > 100 µM | 0.331 µM | > 100 µM | 3.85 µM | 0.087 µM | > 100 µM |  |  | > 100 µM |  | 0.0329 µM | 0.0649 µM |
| C[C@@H]1CC[C@]2(C)C3(C)CC[C@]2(OC3=O)[C@@]12CC(c1ccoc1)OC2=O (stereo not given in full) | 32.1 µM | > 100 µM | > 100 µM | 58.2 µM |  | > 100 µM | > 100 µM | > 100 µM |  | > 100 µM | 56.4 µM |  |  |

From PubChem BioAssay (NCI)
